Source: ChEMBL document CHEMBL3885881, “DrugMatrix”

Organism: Rattus norvegicus
Assay: DrugMatrix - Regimen: Daily Repeat
Assay type: toxicity, organism-based, Sprague-Dawley
Set-up: regimen Daily Repeat, gender Male, age 6-8 weeks
Settings: in vivo, po, route oral GAVAGE, […]; for ABSOLUTE BASOPHIL / ABSOLUTE EOSINOPHIL / ABSOLUTE LYMPHOCYTE / ABSOLUTE MONOCYTE / ABSOLUTE SEGMENTED NEUTROPHIL / BASOPHIL / EOSINOPHIL / ERYTHROCYTE COUNT / HEMATOCRIT / HEMOGLOBIN / LEUKOCYTE COUNT / LYMPHOCYTE / MEAN CORPUSCULAR HEMOGLOBIN / MEAN CORPUSCULAR HEMOGLOBIN CONCENTRATION / MEAN CORPUSCULAR VOLUME / MONOCYTE / NEUTROPHIL / NUCLEATED RED BLOOD CELLS / PLATELET COUNT: tissue Blood; for ALANINE AMINOTRANSFERASE / ALBUMIN / ALKALINE PHOSPHATASE / ASPARTATE AMINOTRANSFERASE / BLOOD UREA NITROGEN / CARBON DIOXIDE / CHLORIDE / CHOLESTEROL / CREATINE PHOSPHOKINASE / CREATININE / GLUCOSE / LACTATE DEHYDROGENASE / LIPASE / PHOSPHORUS / POTASSIUM / SODIUM / TOTAL BILIRUBIN / TOTAL PROTEIN / URIC ACID: tissue Plasma
[1] = 10 mg/kg, 120 h, dose level Low, time 5 day
[2] = 92 mg/kg, 72 h, dose level High, time 3 day
[3] = 92 mg/kg, 120 h, dose level High, time 5 day

Structure (SMILES): c1ccc2[nH]c(-c3cscn3)nc2c1 [THIABENDAZOLE]
- ABSOLUTE BASOPHIL [1]: 0 CELLS/uL
- ABSOLUTE EOSINOPHIL [1]: 61 CELLS/uL
- ABSOLUTE LYMPHOCYTE [1]: 15391 CELLS/uL
- ABSOLUTE MONOCYTE [1]: 225.67 CELLS/uL
- ABSOLUTE SEGMENTED NEUTROPHIL [1]: 1089 CELLS/uL
- BASOPHIL [1]: 0%
- EOSINOPHIL [1]: 0.33%
- ERYTHROCYTE COUNT [1]: 6.11 x10E6/uL
- HEMATOCRIT [1]: 37.8%
- HEMOGLOBIN [1]: 14.63 G/DL
- LEUKOCYTE COUNT [1]: 16.77 x10E3/uL
- LYMPHOCYTE [1]: 92%
- MEAN CORPUSCULAR HEMOGLOBIN [1]: 23.97 pg
- MEAN CORPUSCULAR HEMOGLOBIN CONCENTRATION [1]: 38.7 G/DL
- MEAN CORPUSCULAR VOLUME [1]: 61.9 fL
- MONOCYTE [1]: 1.33%
- NEUTROPHIL [1]: 6.33%
- NUCLEATED RED BLOOD CELLS [1]: 0 /100WBC
- PLATELET COUNT [1]: 1202.33 x10E3/uL
- ALANINE AMINOTRANSFERASE [1]: 79.33 u/L
- ALBUMIN [1]: 4 G/DL
- ALKALINE PHOSPHATASE [1]: 420.33 u/L
- ASPARTATE AMINOTRANSFERASE [1]: 82.33 u/L
- BLOOD UREA NITROGEN [1]: 12.33 mg/dL
- CARBON DIOXIDE [1]: 30.67 mmol/L
- CHLORIDE [1]: 100.67 MEQ/L
- CHOLESTEROL [1]: 66.33 mg/dL
- CREATINE PHOSPHOKINASE [1]: 192 u/L
- CREATININE [1]: 0.19 mg/dL
- GLUCOSE [1]: 163.67 mg/dL
- LACTATE DEHYDROGENASE [1]: 183 u/L
- LIPASE [1]: 10.33 u/L
- PHOSPHORUS [1]: 11.47 mg/dL
- POTASSIUM [1]: 6.52 MEQ/L
- SODIUM [1]: 143.07 MEQ/L
- TOTAL BILIRUBIN [1]: 0.13 mg/dL
- TOTAL PROTEIN [1]: 5.6 G/DL
- URIC ACID [1]: 1.87 mg/dL
- ABSOLUTE BASOPHIL [2]: 0 CELLS/uL
- ABSOLUTE EOSINOPHIL [2]: 24 CELLS/uL
- ABSOLUTE LYMPHOCYTE [2]: 7261 CELLS/uL
- ABSOLUTE MONOCYTE [2]: 24 CELLS/uL
- ABSOLUTE SEGMENTED NEUTROPHIL [2]: 591 CELLS/uL
- BASOPHIL [2]: 0%
- EOSINOPHIL [2]: 0.33%
- ERYTHROCYTE COUNT [2]: 5.57 x10E6/uL
- HEMATOCRIT [2]: 35.07%
- HEMOGLOBIN [2]: 13.8 G/DL
- LEUKOCYTE COUNT [2]: 7.9 x10E3/uL
- LYMPHOCYTE [2]: 91.33%
- MEAN CORPUSCULAR HEMOGLOBIN [2]: 24.83 pg
- MEAN CORPUSCULAR HEMOGLOBIN CONCENTRATION [2]: 39.4 G/DL
- MEAN CORPUSCULAR VOLUME [2]: 63.07 fL
- MONOCYTE [2]: 0.33%
- NEUTROPHIL [2]: 8%
- NUCLEATED RED BLOOD CELLS [2]: 0.33 /100WBC
- PLATELET COUNT [2]: 1094.67 x10E3/uL
- ALANINE AMINOTRANSFERASE [2]: 74.33 u/L
- ALBUMIN [2]: 4.13 G/DL
- ALKALINE PHOSPHATASE [2]: 448.67 u/L
- ASPARTATE AMINOTRANSFERASE [2]: 82 u/L
- BLOOD UREA NITROGEN [2]: 11.67 mg/dL
- CARBON DIOXIDE [2]: 25 mmol/L
- CHLORIDE [2]: 95.67 MEQ/L
- CHOLESTEROL [2]: 85 mg/dL
- CREATINE PHOSPHOKINASE [2]: 153.33 u/L
- CREATININE [2]: 0.32 mg/dL
- GLUCOSE [2]: 135.67 mg/dL
- LACTATE DEHYDROGENASE [2]: 102 u/L
- LIPASE [2]: 9.33 u/L
- PHOSPHORUS [2]: 9.53 mg/dL
- POTASSIUM [2]: 5.43 MEQ/L
- SODIUM [2]: 139.33 MEQ/L
- TOTAL BILIRUBIN [2]: 0.13 mg/dL
- TOTAL PROTEIN [2]: 5.73 G/DL
- URIC ACID [2]: 0.6 mg/dL
- ABSOLUTE BASOPHIL [3]: 0 CELLS/uL
- ABSOLUTE EOSINOPHIL [3]: 47 CELLS/uL
- ABSOLUTE LYMPHOCYTE [3]: 13905 CELLS/uL
- ABSOLUTE MONOCYTE [3]: 244.33 CELLS/uL
- ABSOLUTE SEGMENTED NEUTROPHIL [3]: 703.67 CELLS/uL
- BASOPHIL [3]: 0%
- EOSINOPHIL [3]: 0.33%
- ERYTHROCYTE COUNT [3]: 6.23 x10E6/uL
- HEMATOCRIT [3]: 39.1%
- HEMOGLOBIN [3]: 15 G/DL
- LEUKOCYTE COUNT [3]: 14.9 x10E3/uL
- LYMPHOCYTE [3]: 93.33%
- MEAN CORPUSCULAR HEMOGLOBIN [3]: 24.1 pg
- MEAN CORPUSCULAR HEMOGLOBIN CONCENTRATION [3]: 38.37 G/DL
- MEAN CORPUSCULAR VOLUME [3]: 62.7 fL
- MONOCYTE [3]: 1.67%
- NEUTROPHIL [3]: 4.67%
- NUCLEATED RED BLOOD CELLS [3]: 0 /100WBC
- PLATELET COUNT [3]: 1269.33 x10E3/uL
- ALANINE AMINOTRANSFERASE [3]: 73.33 u/L
- ALBUMIN [3]: 4.13 G/DL
- ALKALINE PHOSPHATASE [3]: 474.33 u/L
- ASPARTATE AMINOTRANSFERASE [3]: 82 u/L
- BLOOD UREA NITROGEN [3]: 13.33 mg/dL
- CARBON DIOXIDE [3]: 25.67 mmol/L
- CHLORIDE [3]: 101 MEQ/L
- CHOLESTEROL [3]: 64.33 mg/dL
- CREATINE PHOSPHOKINASE [3]: 344.33 u/L
- CREATININE [3]: 0.18 mg/dL
- GLUCOSE [3]: 187 mg/dL
- LACTATE DEHYDROGENASE [3]: 278 u/L
- LIPASE [3]: 10.33 u/L
- PHOSPHORUS [3]: 12.03 mg/dL
- POTASSIUM [3]: 6.59 MEQ/L
- SODIUM [3]: 141.23 MEQ/L
- TOTAL BILIRUBIN [3]: 0.2 mg/dL
- TOTAL PROTEIN [3]: 5.7 G/DL
- URIC ACID [3]: 2.43 mg/dL
